Measurements reported in patent US20250302799A1, “PHARMACEUTICAL COMPOSITION CONTAINING FRAXETIN FOR PREVENTION OR TREATMENT OF ENDOMETRIOSIS” (Research & Business Foundation Sungkyunkwan University, priority 2024, published 2025).

Columns and labels:
[1] = test system: endometriotic lesions; assay: Gene expression in endometriotic lesion tissue of the animal model; assay type: in vivo, C57/BL6 mice
Procedure: Seven-week-old female C57/BL6 mice were purchased from DBL (Eumseong, South Korea). After a 7-day acclimation period, they were subcutaneously injected with 2 mg/50 μL of progesterone two days before surgery. After anesthetizing the mice, the […] was excised and autografted onto the peritoneum to induce endometriosis. After culturing for two weeks, the mice were randomly assigned to groups and administered either a vehicle as the control, fraxetin at 30mg/kg, or dienogest at 1 mg/kg orally for four weeks.

[2] = test system: End1/E6E7 cells; assay: BrdU cell proliferation assay; assay type: cell-based, human; conditions: End1/E6E7, all concentrations (5-100 μM), 48 hours
Procedure: (§1) To examine the effects of fraxetin on cell proliferation, the inventors performed a BrdU cell proliferation assay.
(§2) First, 5×10^3 cells of VK2/E6E7, End1/E6E7, and T-HESC were each distributed in 100 μL of medium in 96-well plates.
(§3) Fraxetin was then administered in a dose-dependent manner (0μM, 5 μM, 10 μM, 20 uM, 50 μM, 100 uM) and cultured for 48 hours, followed by the BrdU assay using a BrdU kit (Cat No: 1167229001, Roche) according to the manufacturer's instructions.
(§4) After 48 hours of incubation, 10 μM BrdU (Bromodeoxyuridine) was added to each well and incubated at 37° C. in a 5% CO2 incubator for 2 hours. The cells were then fixed, reacted with anti-BrdU-POD solution at room temperature for 90 minutes, and washed three times. Finally, 100 μL of 3, 3′, 5, 5′-tetramethylbenzidine substrate was added, and absorbance was measured at wavelengths of 370 nm and 492 nm to analyze cell proliferation.

[3] = test system: VK2/E6E7 cells; assay: BrdU cell proliferation assay; assay type: cell-based, human; conditions: VK2/E6E7, 100 μM, 48 hours
Procedure: as §1, §2, §3, §4

[4] = test system: End1/E6E7 cells; assay: Wound healing / cell migration assay; assay type: cell-based, human; conditions: End1/E6E7, 50 μM fraxetin; vehicle 88%
Procedure: (§5) To measure the effects of fraxetin on endometrial cell migration, the inventors used a migration culture dish insert from Ibidi to analyze cell mobility.
(§6) In brief, endometrial cells (VK2/E6E7, End1/E6E7) were placed in compartmentalized wells within the culture dish and cultured until they filled the compartments. Afterward, the insert separating the compartments was removed, creating a 500 μm gap for cell migration. The cells were then cultured with medium containing fraxetin at 37° C. in a 5% CO2 incubator. Cell movement across the gap was observed using an optical microscope (DM3000, Leica) and photographed, and the migration distance was calculated and quantified.

[5] = test system: VK2/E6E7 cells; assay: Wound healing / cell migration assay; assay type: cell-based, human; conditions: vehicle 90%
Procedure: as §5, §6

[6] = test system: End1/E6E7 cells; assay: Western blot analysis of protein expression and phosphorylation; assay type: cell-based, human
Procedure: (§7) To analyze protein expression related to the development of endometriosis following fraxetin treatment, the inventors conducted western blot analysis.
(§8) Briefly, endometrial cells were treated with fraxetin in a dose-dependent manner or in combination with signaling pathway inhibitors. Total proteins were extracted from the treated cells, and protein quantification was performed using the Bradford protein assay (Bio-Rad, Hercules, CA, USA). The extracted proteins were then denatured at 95° C. for 5 minutes and subjected to electrophoresis on a 10% SDS/PAGE gel before being transferred to a nitrocellulose membrane. The membrane was subsequently incubated with primary and secondary antibodies, and target protein expression was analyzed using chemiluminescence detection reagents (Supersignal West Pico, Pierce, Rockford, IL, USA) with the ChemiDoc EQ system and Quantity One software (Bio-Rad).

[7] = test system: VK2/E6E7 cells; assay: as above; assay type: cell-based, human
Procedure: as §7, §8

[8] = test system: VK2/E6E7 cells; assay: Mitochondrial membrane potential by JC-1 staining; assay type: cell-based, human; conditions: VK2/E6E7
[9] = test system: End1/E6E7 cells; assay: Intracellular calcium concentration (fluo-4 staining); assay type: cell-based, human
Procedure: (§9) To examine intracellular or mitochondrial calcium concentration changes in endometrial cells induced by fraxetin, the inventors conducted experiments using 3 μM fluo-4 acetoxymethyl ester (AM) (Invitrogen) and 3 μM rhod-2.
(§10) First, cells were cultured in 6-well plates, treated with fraxetin in a dose-dependent manner (0 μM, 5 μM, 10 μM, 20 μM, 50 μM, 100 μM), and incubated at 37° C. in a 5% CO2 incubator for 48 hours. The cells were then detached using trypsin, washed with PBS, and stained with 3 μM fluo-4 or 3 μM rhod-2 for 20 minutes at 37° C. in a 5% CO2 incubator. After staining, the cells were washed with PBS, transferred to FACS tubes, and analyzed by flow cytometry to measure intracellular or mitochondrial calcium concentrations.

[10] = test system: VK2/E6E7 cells; assay: as above; assay type: cell-based, human
Procedure: as §9, §10

[11] = test system: endometrial cells; assay: tiRNA expression by real-time PCR (cell line not stated); assay type: cell-based, human; conditions: following fraxetin treatment
Procedure: To confirm the expression of tiRNA (tRNA-derived stress-induced RNAs) associated with the development of endometriosis, the inventors conducted real-time PCR.
First, information on candidate tiRNA sequences and mature tRNA sources was obtained from MINTbase (https://cm.jefferson.edu/MINTbase/). miRNA CDNA synthesis was performed using a cDNA kit (Agilent Technologies) to confirm tiRNA expression, with U6 snRNA used for normalization. For transfection of the tiRNA^His GTG inhibitor (5′-AACCGAGAGUACUAACCACUAUACGAUCACCGC-3′) (40 nM), Lipofectamine 2000 was used in Opti-MEM.

[12] = test system: endometrial cells; assay: Western blot analysis (cell line not stated); assay type: cell-based, human
Procedure: as §7, §8

## COc1cc2ccc(=O)oc2c(O)c1O [fraxetin]
[1]; endometriotic lesions
  expression of adhesion-related genes (Icam1, Vcam1, Itga1, Itga5): inhibited
  expression of apoptosis-related genes (Bak1, Bax, Bad, Casp1): increased
  expression of endoplasmic reticulum stress-related genes (Hspa5, Elf2s1, Ern1): increased
  expression of mitochondrial function-related genes (Atp5me, Atp5pb, Atp5po): decreased
[1]; endometriotic lesions, compared to control group
  mRNA expression of inflammation-related genes (Il4, Cxcl15, Il8, Il21, Tnf, Il4ra, Cxcr1, Cxcr2, Il18r, Il21r, Tnfrsfa): significantly reduced
[1]; fraxetin-treated group compared to control group
  expression of Icam1 and Vcam1 within the lesion tissue: reduced
[2]
  cell proliferation (remaining): below 50%
[3]
  reduction of cell proliferation: approximately 40%
[4]
  wound closure: 7%
[5]
  wound closure: 18%
[6]; 20 μM fraxetin, End1/E6E7
  reduction of S6 phosphorylation: 59%
[6]; 50 μM fraxetin, End1/E6E7
  ERK1/2 phosphorylation: 0.51 fold
[6]; 50 μM fraxetin, first value, End1/E6E7 assumed
  p38 phosphorylation compared to control: 0.61 fold
[6]; End1/E6E7
  IRE1α expression: 1.7 fold
  expression of anti-apoptotic protein Bcl-xL: reduced
  inhibition of AKT phosphorylation compared to control: 57%
  pro-apoptotic protein BAK: increased
  pro-apoptotic protein BAX: increased
[7]; 50 μM fraxetin, VK2/E6E7
  ERK1/2 phosphorylation: 0.61 fold
[7]; 50 μM fraxetin, second value, VK2/E6E7 assumed
  p38 phosphorylation compared to control: 0.47 fold
[7]; VK2/E6E7
  IRE1α expression: 0.53 fold
  expression of anti-apoptotic protein Bcl-xL: reduced
  pro-apoptotic protein BAK: increased
  pro-apoptotic protein BAX: increased
[8]
  relative membrane potential loss rate increase: 2.6 fold
[9]
  calcium levels (upregulated to): 180%
[10]
  calcium levels (upregulated to): 300%
[11]
  mRNA expression of tiRNA^GlyCCC, tiRNA^ValCAC, tiRNA^AspGTC and tiRNA^GluCTC: minimal change
  tiRNA^HisGTG expression: increased by more than twofold
[12]; 20 μM and 50 μM fraxetin
  level of GRP78 compared to control: 1.9 fold
[12]; 50 μM fraxetin
  JNK phosphorylation (remaining): below 50%
[12]; fraxetin-treated
  eIF2α phosphorylation: tended to increase
